Laboratory results from BigSolDB 2.1.

O=C(O)Cc1ccc([N+](=O)[O-])cc1
solubility (mole fraction)
Settings | 283.15 K | 288.15 K | 293.15 K | 298.15 K | 303.15 K | 308.15 K | 313.15 K | 318.15 K | 323.15 K | 328.15 K
in DMAc | 0.0895 | 0.1 | 0.114 | 0.131 | 0.149 | 0.169 | 0.191 | 0.216 | 0.24 | 0.271
in DMF | 0.161 | 0.178 | 0.2 | 0.225 | 0.251 | 0.28 | 0.311 | 0.342 | 0.377 | 0.417
in acetonitrile | 0.0193 | 0.0223 | 0.0266 | 0.0312 | 0.0375 | 0.0449 | 0.0535 | 0.0639 | 0.0761 | 0.0918
in cyclohexane | 1.2e-05 | 1.69e-05 | 2.3e-05 | 3.11e-05 | 4.12e-05 | 5.45e-05 | 7.11e-05 | 9e-05 | 0.000113 | 0.00014
in ethanol | 0.0758 | 0.0849 | 0.0979 | 0.111 | 0.128 | 0.148 | 0.17 | 0.196 | 0.223 | 0.254
in ethyl acetate | 0.0309 | 0.0352 | 0.041 | 0.0487 | 0.0576 | 0.0694 | 0.0823 | 0.098 | 0.116 | 0.137
in ethylene glycol | 0.0168 | 0.0185 | 0.0213 | 0.0254 | 0.0301 | 0.0361 | 0.0428 | 0.0503 | 0.0596 | 0.0723
in isobutanol | 0.025 | 0.0282 | 0.0323 | 0.0389 | 0.0464 | 0.0554 | 0.0658 | 0.0776 | 0.0917 | 0.11
in isopropanol | 0.028 | 0.031 | 0.0373 | 0.0455 | 0.0542 | 0.065 | 0.0768 | 0.0914 | 0.109 | 0.131
in methanol | 0.125 | 0.137 | 0.155 | 0.174 | 0.195 | 0.218 | 0.245 | 0.274 | 0.305 | 0.341
in n-butanol | 0.0498 | 0.0564 | 0.0653 | 0.0758 | 0.0877 | 0.101 | 0.117 | 0.135 | 0.156 | 0.178
in n-propanol | 0.0518 | 0.0589 | 0.0683 | 0.0784 | 0.0916 | 0.106 | 0.124 | 0.145 | 0.168 | 0.193
in water | 0.000141 | 0.00017 | 0.000209 | 0.000264 | 0.000336 | 0.000422 | 0.000528 | 0.000663 | 0.000816 | 0.00101
